Test results: patent US20120059053A1, “COMPOUNDS OF 2,3-DIHYDRO-BENZOFURAN” (FERRER INTERNATIONAL, S.A., priority 2007, published 2012)

Assays:
[1] = Metabolic stability by disappearance of compound on incubation in human microsomes; details: 120 min, 1 μM
Brain/plasma ratio = details: in vivo
[2] = Levels in rat plasma after po administration; type: in vivo; details: 15 min after po administration of 1 mg/Kg

| metabolic stability [1] | brain/plasma ratio (Brain/plasma ratio) | concentration at 15 min [2] [µg/mL] | SMILES |
| --- | --- | --- | --- |
| less than 30% | zero | 0.0101 | CCC(=O)NCC[C@@H]1CCc2ccc(OC)cc21 [(1S)-N-[2-(6-methoxy-indan-1-yl)-ethyl]-propionamide] |
| – | – | 0.098 | COc1ccc2c(c1)C(CCNC(C)=O)CO2 (stereo not shown) [Example 1, N-[2-(5-methoxy-2,3-dihydro-benzofuran-3-yl)-ethyl]-acetamide] |
